Experimental data reported in patent US9611249B2, “1H-indazole-3-carboxamide compounds as glycogen synthase kinase 3 beta inhibitors” (AZIENDE CHIMICHE RIUNITE ANGELINI FRANCESCO A.C.R.A.F. …, priority 2012, dated 2017).

Legend:
human GSK-3β = human GSK-3β (Homo sapiens (Human), UniProt P49841); assay: GSK-3β LanthaScreen TR-FRET Eu Kinase binding and displacement assay; conditions: compounds 16 to 41, LanthaScreen TR-FRET binding and displacement assay, five concentrations 100 μM to 10 nM
Protocol: In a second assay, the same compounds were assayed at five concentrations ranging from 100 μM to 10 nM with ten-fold dilutions in duplicate. Compounds 1 to 15 were tested using the same first assay, compounds 16 to 41 were tested in another assay based on the binding and displacement of AlexaFluor® 647 labeled, ATP-competitive Kinase inhibitor scaffold using LanthaScreen™ TR-FRET technology Eu Kinase assay packet according to manufacturer's instruction (Life Technologies, Italy).
The IC50 values (concentration causing a half maximal inhibition of control specific activity), reported in table 4, were determined by non-linear regression analysis of the inhibition curves generated with mean replicate values using Hill equation curve fitting.

IRK (h) (InsR) = IRK (h) (InsR) (Homo sapiens (Human), UniProt P06213); assay: Kinase selectivity panel: IRK (h) (InsR); type: biochemical; conditions: 10 μM in duplicate, read-out: % inhibition of control values
IRK (h) (InsR), sequence (P06213 28-1382): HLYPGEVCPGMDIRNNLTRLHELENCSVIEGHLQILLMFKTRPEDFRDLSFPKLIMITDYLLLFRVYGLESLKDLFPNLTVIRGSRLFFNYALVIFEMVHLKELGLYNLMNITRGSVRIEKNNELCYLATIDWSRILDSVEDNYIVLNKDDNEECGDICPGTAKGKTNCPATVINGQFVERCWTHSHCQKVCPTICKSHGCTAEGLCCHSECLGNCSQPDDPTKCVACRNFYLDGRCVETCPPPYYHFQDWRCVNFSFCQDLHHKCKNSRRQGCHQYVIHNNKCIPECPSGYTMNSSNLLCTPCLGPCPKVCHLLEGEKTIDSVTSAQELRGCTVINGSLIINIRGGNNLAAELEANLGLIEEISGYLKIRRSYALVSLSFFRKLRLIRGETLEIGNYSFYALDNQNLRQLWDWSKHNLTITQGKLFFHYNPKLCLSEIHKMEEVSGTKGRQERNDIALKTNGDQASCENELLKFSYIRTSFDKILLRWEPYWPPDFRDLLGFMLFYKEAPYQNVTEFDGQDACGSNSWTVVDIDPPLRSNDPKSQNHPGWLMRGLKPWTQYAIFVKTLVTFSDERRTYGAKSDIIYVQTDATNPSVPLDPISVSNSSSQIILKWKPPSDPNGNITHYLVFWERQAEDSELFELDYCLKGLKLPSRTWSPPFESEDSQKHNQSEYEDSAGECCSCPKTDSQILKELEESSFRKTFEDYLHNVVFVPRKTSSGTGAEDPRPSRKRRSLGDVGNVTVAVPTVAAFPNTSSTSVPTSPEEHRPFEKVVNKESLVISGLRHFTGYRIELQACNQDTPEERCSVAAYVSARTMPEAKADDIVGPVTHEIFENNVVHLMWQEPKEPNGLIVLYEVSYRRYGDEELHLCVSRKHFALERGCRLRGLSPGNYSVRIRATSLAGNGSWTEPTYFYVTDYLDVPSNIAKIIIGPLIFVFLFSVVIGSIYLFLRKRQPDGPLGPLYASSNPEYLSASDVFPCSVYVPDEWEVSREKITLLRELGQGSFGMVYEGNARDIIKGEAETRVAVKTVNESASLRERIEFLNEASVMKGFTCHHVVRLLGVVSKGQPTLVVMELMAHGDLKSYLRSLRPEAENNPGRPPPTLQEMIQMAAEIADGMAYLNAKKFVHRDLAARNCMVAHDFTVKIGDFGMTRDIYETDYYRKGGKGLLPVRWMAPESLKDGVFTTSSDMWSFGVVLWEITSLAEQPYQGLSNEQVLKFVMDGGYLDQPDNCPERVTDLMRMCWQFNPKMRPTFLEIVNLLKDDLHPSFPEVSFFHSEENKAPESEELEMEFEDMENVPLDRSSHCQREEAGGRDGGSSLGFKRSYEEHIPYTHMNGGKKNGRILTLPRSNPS
Protocol: (§1) (a) Compounds 1 and 2 were tested against a panel of 60 kinases in order to assess their selectivity. The assays were chosen taking into consideration the diversity of assay families.
(§2) Tested kinases were representative of following kinase sub-families: • protein-serine/threonine kinases; • protein-tyrosine kinases; • other kinases; and • atypical kinases.
(§3) Human recombinant kinases were incubated in the presence of specific peptide substrates plus ATP for different times (10, 15, 30, 60 or 90 minutes) at 22° C. Phosphorylated substrate was detected by LANCE or HTRF technology (CISBIO, MA, USA). The compounds were tested at 10 μM in duplicate.
(§4) The results are expressed as a percentage of inhibition of control specific activity obtained in the presence of the test compounds and are reported in the following Table 5.
(§5) (b) Compounds 3, 8, 29 and 31 were tested against the same panel of 60 kinases under the same conditions described above for compounds 1 and 2.
(§6) The results are expressed as a percent of inhibition of control specific activity obtained in the presence of the test compounds and are reported in the following Table 6.

TRKA (h) = TRKA (h) (Homo sapiens (Human), UniProt P04629); assay: Kinase selectivity panel: TRKA (h); type: biochemical; conditions: 10 μM in duplicate, read-out: % inhibition of control values
TRKA (h), sequence (P04629 33-796): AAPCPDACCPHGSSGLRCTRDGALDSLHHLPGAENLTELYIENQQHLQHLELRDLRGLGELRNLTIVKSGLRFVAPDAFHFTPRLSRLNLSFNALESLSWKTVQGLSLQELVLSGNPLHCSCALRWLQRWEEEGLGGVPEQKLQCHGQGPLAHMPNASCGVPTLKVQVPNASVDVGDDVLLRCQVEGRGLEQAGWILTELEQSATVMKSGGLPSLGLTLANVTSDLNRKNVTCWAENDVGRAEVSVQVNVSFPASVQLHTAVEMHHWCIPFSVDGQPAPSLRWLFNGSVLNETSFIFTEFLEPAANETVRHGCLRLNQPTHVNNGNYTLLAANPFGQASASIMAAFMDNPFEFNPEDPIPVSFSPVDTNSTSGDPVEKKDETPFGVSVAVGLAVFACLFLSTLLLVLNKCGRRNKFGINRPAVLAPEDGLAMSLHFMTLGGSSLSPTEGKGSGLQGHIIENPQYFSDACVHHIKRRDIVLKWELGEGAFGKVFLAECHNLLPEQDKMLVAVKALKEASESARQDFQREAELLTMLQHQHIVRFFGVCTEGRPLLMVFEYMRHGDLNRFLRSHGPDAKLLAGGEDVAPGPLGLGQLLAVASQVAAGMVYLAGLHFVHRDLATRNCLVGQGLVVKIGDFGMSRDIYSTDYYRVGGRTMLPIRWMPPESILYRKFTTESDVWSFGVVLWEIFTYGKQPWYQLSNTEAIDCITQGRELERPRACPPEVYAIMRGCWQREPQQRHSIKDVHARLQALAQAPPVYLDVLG
Protocol: as §1, §2, §3, §4, §5, §6

Src kinase (h) = Src kinase (h) (Homo sapiens (Human), UniProt P12931); assay: Kinase selectivity panel: Src kinase (h); type: biochemical; conditions: 10 μM in duplicate, read-out: % inhibition of control values
Src kinase (h), sequence (P12931 whole entry, looked up): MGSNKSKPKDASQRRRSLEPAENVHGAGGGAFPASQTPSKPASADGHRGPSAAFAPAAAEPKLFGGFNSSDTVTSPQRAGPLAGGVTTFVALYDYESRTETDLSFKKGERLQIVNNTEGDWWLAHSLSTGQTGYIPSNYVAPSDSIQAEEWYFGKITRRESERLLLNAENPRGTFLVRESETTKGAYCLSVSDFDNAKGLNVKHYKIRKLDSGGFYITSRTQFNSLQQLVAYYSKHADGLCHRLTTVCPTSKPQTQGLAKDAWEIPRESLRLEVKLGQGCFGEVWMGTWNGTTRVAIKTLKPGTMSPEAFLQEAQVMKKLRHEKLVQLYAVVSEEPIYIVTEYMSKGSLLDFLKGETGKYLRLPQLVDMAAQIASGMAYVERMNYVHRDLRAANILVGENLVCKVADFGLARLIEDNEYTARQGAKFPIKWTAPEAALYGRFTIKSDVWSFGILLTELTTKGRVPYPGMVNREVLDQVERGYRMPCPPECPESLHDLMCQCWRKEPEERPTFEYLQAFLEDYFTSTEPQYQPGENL
Protocol: as §1, §2, §3, §4, §5, §6

GSK3beta (h) = GSK3beta (h) (Homo sapiens (Human), UniProt P49841); assay: Kinase selectivity panel: GSK3beta (h); type: biochemical; conditions: for inhibition at 10 µM: GSK3beta (h), 10 μM in duplicate, read-out: % inhibition of control values; for selectivity for GSK-3β compared to the other kinases of the panel: panel of 60 kinases, 10 μM, conclusion in words
GSK3beta (h), sequence (P49841 whole entry): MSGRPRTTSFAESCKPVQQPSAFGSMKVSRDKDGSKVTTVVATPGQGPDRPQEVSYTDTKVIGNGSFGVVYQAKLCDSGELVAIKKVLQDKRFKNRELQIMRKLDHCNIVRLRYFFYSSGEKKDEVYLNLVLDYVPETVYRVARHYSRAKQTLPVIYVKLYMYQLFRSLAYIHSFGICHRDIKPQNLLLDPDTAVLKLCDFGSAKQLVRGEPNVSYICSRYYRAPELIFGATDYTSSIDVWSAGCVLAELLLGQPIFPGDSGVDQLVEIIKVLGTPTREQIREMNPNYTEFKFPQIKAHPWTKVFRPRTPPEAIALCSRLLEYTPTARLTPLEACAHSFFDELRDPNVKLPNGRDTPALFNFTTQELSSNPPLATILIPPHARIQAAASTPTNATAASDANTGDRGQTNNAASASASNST
Protocol: as §1, §2, §3, §4, §6

DYRK1a (h) = DYRK1a (h) (Homo sapiens (Human), UniProt Q13627); assay: Kinase selectivity panel: DYRK1a (h); type: biochemical; conditions: 10 μM in duplicate, read-out: % inhibition of control values
Protocol: as §1, §2, §3, §4, §5, §6

PCTAIRE1 kinase (h) = PCTAIRE1 kinase (h) (Homo sapiens (Human), UniProt Q00536); assay: Kinase selectivity panel: PCTAIRE1 kinase (h); type: biochemical; conditions: 10 μM in duplicate, read-out: % inhibition of control values
Protocol: as §1, §2, §3, §4, §5, §6

CDC2/CDK1 (h) (cycB) = CDC2/CDK1 (h) (cycB) (Homo sapiens (Human), UniProt P06493); assay: Kinase selectivity panel: CDC2/CDK1 (h) (cycB); type: biochemical; conditions: 10 μM in duplicate, read-out: % inhibition of control values
Protocol: as §1, §2, §3, §4, §5, §6

CDK2 (h) (cycA) = CDK2 (h) (cycA) (Homo sapiens (Human), UniProt P24941); assay: Kinase selectivity panel: CDK2 (h) (cycA); type: biochemical; conditions: 10 μM in duplicate, read-out: % inhibition of control values
Protocol: as §1, §2, §3, §4, §5, §6

CDK5/p35 (h) = CDK5/p35 (h) (Homo sapiens (Human), UniProt Q00535); assay: Kinase selectivity panel: CDK5/p35 (h); type: biochemical; conditions: 10 μM in duplicate, read-out: % inhibition of control values
CDK5/p35 (h), sequence (Q00535 whole entry): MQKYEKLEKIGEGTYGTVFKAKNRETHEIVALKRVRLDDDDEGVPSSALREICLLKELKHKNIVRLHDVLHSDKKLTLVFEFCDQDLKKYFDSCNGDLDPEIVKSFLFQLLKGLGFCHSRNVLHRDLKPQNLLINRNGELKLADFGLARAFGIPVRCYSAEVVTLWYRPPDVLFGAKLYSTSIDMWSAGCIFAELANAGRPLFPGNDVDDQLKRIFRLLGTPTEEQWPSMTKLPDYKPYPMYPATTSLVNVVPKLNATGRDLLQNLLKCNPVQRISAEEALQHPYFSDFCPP
CDK5/p35 (h), sequence (Q15078 whole entry partner): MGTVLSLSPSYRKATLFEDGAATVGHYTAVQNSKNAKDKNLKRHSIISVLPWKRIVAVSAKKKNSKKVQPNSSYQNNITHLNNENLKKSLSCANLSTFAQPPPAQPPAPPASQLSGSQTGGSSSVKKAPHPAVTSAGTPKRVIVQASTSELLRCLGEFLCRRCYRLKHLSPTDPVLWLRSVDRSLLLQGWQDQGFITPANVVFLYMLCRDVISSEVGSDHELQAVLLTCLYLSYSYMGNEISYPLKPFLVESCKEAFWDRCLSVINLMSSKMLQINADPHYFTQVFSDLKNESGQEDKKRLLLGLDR
Protocol: as §1, §2, §3, §4, §5, §6

ERK1 (h) = ERK1 (h) (Homo sapiens (Human), UniProt P27361); assay: Kinase selectivity panel: ERK1 (h); type: biochemical; conditions: 10 μM in duplicate, read-out: % inhibition of control values
Protocol: as §1, §2, §3, §4, §5, §6

ERK2 (h) (P42mapk) = ERK2 (h) (P42mapk) (Homo sapiens (Human), UniProt P28482); assay: Kinase selectivity panel: ERK2 (h) (P42mapk); type: biochemical; conditions: 10 μM in duplicate, read-out: % inhibition of control values
Protocol: as §1, §2, §3, §4, §5, §6

smMLCK (h) (MYLK) = smMLCK (h) (MYLK) (Homo sapiens (Human), UniProt Q15746); assay: Kinase selectivity panel: smMLCK (h) (MYLK); type: biochemical; conditions: 10 μM in duplicate, read-out: % inhibition of control values
Protocol: as §1, §2, §3, §4, §5, §6

HGK (h) (MAP4K4) = HGK (h) (MAP4K4) (Homo sapiens (Human), UniProt O95819); assay: Kinase selectivity panel: HGK (h) (MAP4K4); type: biochemical; conditions: 10 μM in duplicate, read-out: % inhibition of control values
HGK (h) (MAP4K4), sequence (O95819 whole entry): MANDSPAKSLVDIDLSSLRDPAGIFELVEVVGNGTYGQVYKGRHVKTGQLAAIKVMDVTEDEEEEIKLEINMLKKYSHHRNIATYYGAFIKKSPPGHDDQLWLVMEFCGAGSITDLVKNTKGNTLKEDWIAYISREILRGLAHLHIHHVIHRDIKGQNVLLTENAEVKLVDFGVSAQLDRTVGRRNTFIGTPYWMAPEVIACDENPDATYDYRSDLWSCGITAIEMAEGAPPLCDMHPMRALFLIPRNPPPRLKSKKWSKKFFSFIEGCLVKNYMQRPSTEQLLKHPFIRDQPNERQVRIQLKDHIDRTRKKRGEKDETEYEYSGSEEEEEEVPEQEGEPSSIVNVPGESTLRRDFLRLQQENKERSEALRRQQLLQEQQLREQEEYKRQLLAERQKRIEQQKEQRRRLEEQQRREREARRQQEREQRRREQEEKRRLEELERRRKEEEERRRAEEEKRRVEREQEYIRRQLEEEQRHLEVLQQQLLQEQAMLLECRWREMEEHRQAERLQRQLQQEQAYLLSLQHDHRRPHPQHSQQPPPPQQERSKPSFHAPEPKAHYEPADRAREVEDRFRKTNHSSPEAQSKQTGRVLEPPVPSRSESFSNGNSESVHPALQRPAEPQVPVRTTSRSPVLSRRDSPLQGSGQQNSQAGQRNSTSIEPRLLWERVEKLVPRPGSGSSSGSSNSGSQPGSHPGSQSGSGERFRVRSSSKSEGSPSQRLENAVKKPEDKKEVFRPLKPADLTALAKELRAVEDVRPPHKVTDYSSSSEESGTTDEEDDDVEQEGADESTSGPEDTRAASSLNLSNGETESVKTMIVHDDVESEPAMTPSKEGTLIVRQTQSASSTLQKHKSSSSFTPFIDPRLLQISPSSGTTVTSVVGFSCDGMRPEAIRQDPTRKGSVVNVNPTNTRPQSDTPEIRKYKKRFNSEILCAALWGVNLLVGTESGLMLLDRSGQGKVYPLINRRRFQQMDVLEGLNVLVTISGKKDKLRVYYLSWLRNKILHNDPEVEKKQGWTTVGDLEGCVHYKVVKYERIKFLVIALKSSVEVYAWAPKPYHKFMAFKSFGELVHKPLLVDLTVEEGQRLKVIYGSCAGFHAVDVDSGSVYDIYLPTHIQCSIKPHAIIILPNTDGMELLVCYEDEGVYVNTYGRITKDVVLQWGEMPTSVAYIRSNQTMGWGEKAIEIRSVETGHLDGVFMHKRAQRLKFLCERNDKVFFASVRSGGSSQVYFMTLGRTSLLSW
Protocol: as §1, §2, §3, §4, §5, §6

MEK1/MAP2K1 (h) = MEK1/MAP2K1 (h) (Homo sapiens (Human), UniProt Q02750); assay: Kinase selectivity panel: MEK1/MAP2K1 (h); type: biochemical; conditions: 10 μM in duplicate, read-out: % inhibition of control values
Protocol: as §1, §2, §3, §4, §5, §6

TAOK2 (TAO1) (h) = TAOK2 (TAO1) (h) (Homo sapiens (Human), UniProt Q9UL54); assay: Kinase selectivity panel: TAOK2 (TAO1) (h); type: biochemical; conditions: 10 μM in duplicate, read-out: % inhibition of control values
Protocol: as §1, §2, §3, §4, §5, §6

NEK1 (h) = NEK1 (h) (Homo sapiens (Human), UniProt Q96PY6); assay: Kinase selectivity panel: NEK1 (h); type: biochemical; conditions: 10 μM in duplicate, read-out: % inhibition of control values
Protocol: as §1, §2, §3, §4, §5, §6

human GSK-3β, sequence (P49841 whole entry): as the sequence (P49841 whole entry) above

## O=C(O)CN1CCC(CNC(=O)c2n[nH]c3ccc(-c4cccc(F)c4F)cc23)CC1 [Compound 29, {4-[({[5-(2,3-difluorophenyl)-1H-indazol-3-yl]carbonyl}amino)methyl]piperidin-1-yl}acetic acid]
Human GSK-3β
  IC50: 30 nM
IRK (h) (InsR)
  inhibition at 10 µM: 0%
TRKA (h)
  inhibition at 10 µM: 3%
Src kinase (h)
  inhibition at 10 µM: 0%
GSK3beta (h)
  inhibition at 10 µM: 100%
  selectivity for GSK-3β compared to the other kinases of the panel: good affinity to GSK-3β when compared to most of other kinases of the same family
DYRK1a (h)
  inhibition at 10 µM: 100%
PCTAIRE1 kinase (h)
  inhibition at 10 µM: 49%
CDC2/CDK1 (h) (cycB)
  inhibition at 10 µM: 80%
CDK2 (h) (cycA)
  inhibition at 10 µM: 77%
CDK5/p35 (h)
  inhibition at 10 µM: 77%
ERK1 (h)
  inhibition at 10 µM: 61%
ERK2 (h) (P42mapk)
  inhibition at 10 µM: 67%
smMLCK (h) (MYLK)
  inhibition at 10 µM: 17%
HGK (h) (MAP4K4)
  inhibition at 10 µM: 71%
MEK1/MAP2K1 (h)
  inhibition at 10 µM: 75%
TAOK2 (TAO1) (h)
  inhibition at 10 µM: 61%
NEK1 (h)
  inhibition at 10 µM: 9%

## CCc1ccc2[nH]nc(C(=O)NCC3CCN(CC(=O)O)CC3)c2c1 [Compound 31, [4-({[(5-ethyl-1H-indazol-3-yl)carbonyl]amino}methyl)piperidin-1-yl]acetic acid]
Human GSK-3β
  IC50: 960 nM
IRK (h) (InsR)
  inhibition at 10 µM: 0%
TRKA (h)
  inhibition at 10 µM: 0%
Src kinase (h)
  inhibition at 10 µM: 9%
GSK3beta (h)
  inhibition at 10 µM: 89%
  selectivity for GSK-3β compared to the other kinases of the panel: good selectivity profile
DYRK1a (h)
  inhibition at 10 µM: 77%
PCTAIRE1 kinase (h)
  inhibition at 10 µM: 27%
CDC2/CDK1 (h) (cycB)
  inhibition at 10 µM: 10%
CDK2 (h) (cycA)
  inhibition at 10 µM: 35%
CDK5/p35 (h)
  inhibition at 10 µM: 16%
ERK1 (h)
  inhibition at 10 µM: 1%
ERK2 (h) (P42mapk)
  inhibition at 10 µM: 9%
smMLCK (h) (MYLK)
  inhibition at 10 µM: 1%
HGK (h) (MAP4K4)
  inhibition at 10 µM: 10%
MEK1/MAP2K1 (h)
  inhibition at 10 µM: 9%
TAOK2 (TAO1) (h)
  inhibition at 10 µM: 9%
NEK1 (h)
  inhibition at 10 µM: 0%
